Test results reported in ChEMBL document CHEMBL3352405, “Design and synthesis of sulfamoyl benzoic acid analogues with subnanomolar agonist activity specific to the LPA2 receptor” (J Med Chem, 2014).

Tests used:
[1] = molecular target: T1, Lysophosphatidic acid receptor 2 (Homo sapiens, UniProt Q9HBW0); test: Agonist activity at human LPA2 expressed in LPA1xLPA2 double knockout mouse MEF cells by Fura-2AM dye based Ca2+ mobilization assay; assay type: functional, cell-based
[2] = molecular target: T1, Lysophosphatidic acid receptor 2; test: Agonist activity at human LPA2 expressed in LPA1xLPA2 double knockout mouse MEF cells by Fura-2AM dye based Ca2+ mobilization assay relative to LPA 18:1; assay type: functional, cell-based
[3] = molecular target: Lysophosphatidic acid receptor 1 (Homo sapiens, UniProt Q92633); test: Agonist activity at human LPA1 expressed in RH7777 cells up to 10 uM by Fura-2AM dye based Ca2+ mobilization assay
[4] = molecular target: T2, Lysophosphatidic acid receptor 3 (Homo sapiens, UniProt Q9UBY5); test: Antagonist activity at human LPA3 expressed in RH7777 cells assessed as reduction in […]-induced calcium mobilization by Fura-2AM dye based Ca2+ mobilization assay
T2 sequence (Q9UBY5 whole entry): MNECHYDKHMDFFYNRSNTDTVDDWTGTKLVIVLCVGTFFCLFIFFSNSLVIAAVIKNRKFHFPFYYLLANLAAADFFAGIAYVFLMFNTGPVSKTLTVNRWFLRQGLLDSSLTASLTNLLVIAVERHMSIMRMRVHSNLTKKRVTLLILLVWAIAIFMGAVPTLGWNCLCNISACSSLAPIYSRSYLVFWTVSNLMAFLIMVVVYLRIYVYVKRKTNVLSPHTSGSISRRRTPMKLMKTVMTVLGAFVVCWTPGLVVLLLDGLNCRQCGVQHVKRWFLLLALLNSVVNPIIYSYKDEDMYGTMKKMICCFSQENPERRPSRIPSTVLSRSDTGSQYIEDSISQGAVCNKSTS

T1 sequence (Q9HBW0 whole entry): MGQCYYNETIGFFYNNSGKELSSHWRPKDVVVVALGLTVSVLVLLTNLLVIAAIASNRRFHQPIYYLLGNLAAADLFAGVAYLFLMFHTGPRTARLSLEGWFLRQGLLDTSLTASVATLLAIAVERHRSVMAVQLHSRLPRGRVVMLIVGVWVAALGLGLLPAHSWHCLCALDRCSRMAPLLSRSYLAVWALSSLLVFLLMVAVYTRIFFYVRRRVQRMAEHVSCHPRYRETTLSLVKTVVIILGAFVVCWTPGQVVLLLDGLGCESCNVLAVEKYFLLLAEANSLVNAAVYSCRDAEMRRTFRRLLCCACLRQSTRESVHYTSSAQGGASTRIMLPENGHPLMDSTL
Lysophosphatidic acid receptor 1, sequence (Q92633 whole entry): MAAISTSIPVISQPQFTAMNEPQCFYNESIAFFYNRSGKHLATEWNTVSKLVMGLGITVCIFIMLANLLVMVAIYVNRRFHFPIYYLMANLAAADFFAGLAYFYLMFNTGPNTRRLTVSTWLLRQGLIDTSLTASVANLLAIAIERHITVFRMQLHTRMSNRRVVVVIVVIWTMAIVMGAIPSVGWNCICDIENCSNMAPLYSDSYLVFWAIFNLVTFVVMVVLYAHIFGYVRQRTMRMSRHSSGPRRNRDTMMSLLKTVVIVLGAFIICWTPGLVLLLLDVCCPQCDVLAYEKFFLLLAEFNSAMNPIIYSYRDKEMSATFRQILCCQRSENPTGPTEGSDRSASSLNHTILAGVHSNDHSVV

Work on `O=C(O)c1ccccc1S(=O)(=O)NCCCN1C(=O)c2cccc3cccc(c23)C1=O` yielded an EC50 [1] of 2160 nM.
`O=C(O)c1ccccc1S(=O)(=O)NCCCCCN1C(=O)c2cccc3cccc(c23)C1=O` gave an EC50 [1] of 1420 nM and an Emax [2] of 100%.
In the case of `O=C(O)c1cc(Cl)ccc1S(=O)(=O)NCCCCN1C(=O)c2cccc3cccc(c23)C1=O`, the Emax [2] is reported as 124%.
`O=C(O)c1cc(F)ccc1S(=O)(=O)NCCCCN1C(=O)c2cccc3cccc(c23)C1=O` showed an EC50 [1] of 0.15 nM and an Emax [2] of 119%.
In the case of `CCCCCCCC/C=C\CCCCCCCC(=O)OC[C@@H](O)COP(=O)(O)O` [LYSOPHOSPHATIDIC ACID], the EC50 [3] is reported as 350 nM.
Work on `O=C(O)c1ccc(Br)cc1S(=O)(=O)NCCCCN1C(=O)c2cccc3cccc(c23)C1=O` yielded an EC50 [1] of 50 nM and an Emax [2] of 100%.
Compound `O=C(O)c1ccc2c(c1)S(=O)(=O)N(CCCCN1C(=O)c3cccc4cccc(c34)C1=O)C2=O` has an Emax [2] of 100%.
With `O=C(O)c1ccccc1SCCCN1C(=O)c2cccc3cccc(c23)C1=O` the Emax [2] was 75% and the IC50 [4] was 6600 nM.
With `O=C(O)c1cc(Br)ccc1S(=O)(=O)NCCCCN1C(=O)c2cccc3cccc(c23)C1=O` the EC50 [1] was 60 nM and the Emax [2] was 104%.
In the case of `O=C(O)c1ccccc1S(=O)(=O)NCCCCN1C(=O)c2cccc3cccc(c23)C1=O`, the EC50 [1] is reported as 110 nM and the Emax [2] is reported as 100%.
